The source made the active and inactive calls.
Tests used:
[1] = Cytotoxicity against human HeLa cells assessed as reduction in cell viability measured after 24 hrs by celltiter-blue assay; assay type: cell-based
Trypsin [2] = biological target: T1, Trypsin (Homo sapiens, UniProt P07477+P07478+P35030); test: Inhibition of trypsin (unknown origin) at 50 uM using Boc-Val-Pro-Arg-AMC as substrate preincubated for 15 mins followed by substrate addition and measured for 15 mins by fluorimetric assay relative to control; assay type: protein assay; conditions: for inhibition (INH): 0.25 h, 50 µM; for inhibition at 0.25 h, 50 µM: trypsin (unknown origin), probe Boc-Val-Pro-Arg-AMC
Prothrombin = Prothrombin (Homo sapiens, UniProt P00734); test: Inhibition of thrombin (unknown origin) at 25 uM using Boc-Val-Pro-Arg-AMC as substrate preincubated for 15 mins followed by substrate addition and measured for 15 mins by fluorimetric assay; conditions: 0.25 h
[3] = biological target: Genome polyprotein (dengue virus type 2) (UniProt P29990); test: Competitive inhibition of Dengue virus serotype 2 NS2B-NS3 protease expressed in Escherichia coli BL21 lambda (DE3) cells using varying levels of Abz-Nle-Lys-Arg-Arg-Ser-3-(NO2)Tyr as substrate by Cheng-Prusoff plot analysis
[4] = biological target: Genome polyprotein (West Nile virus) (UniProt P06935); test: Inhibition of West Nile virus NS2B-NS3 protease expressed in Escherichia coli BL21 lambda (DE3) cells at 50 uM using Abz-Gly-Leu-Lys-Arg-Gly-Gly-3-(NO2)Tyr as substrate preincubated for 15 mins followed by substrate addition measured for 15 mins by fluorimetric analysis relative to control
Genome polyprotein [5] = biological target: T2, Genome polyprotein (West Nile virus, UniProt P06935); test: Inhibition of West Nile virus NS2B-NS3 protease expressed in Escherichia coli BL21 lambda (DE3) cells using Abz-Gly-Leu-Lys-Arg-Gly-Gly-3-(NO2)Tyr as substrate preincubated for 15 mins followed by substrate addition measured for 15 mins by fluorimetric analysis
[6] = biological target: Genome polyprotein (dengue virus type 2) (UniProt P29990); test: Inhibition of Dengue virus serotype 2 NS2B-NS3 protease expressed in Escherichia coli BL21 lambda (DE3) cells at 50 uM using Abz-Nle-Lys-Arg-Arg-Ser-3-(NO2)Tyr as substrate preincubated for 15 mins followed by substrate addition and measured for 15 mins by FRET assay relative to control
Genome polyprotein [7] = biological target: T3, Genome polyprotein (dengue virus type 2, UniProt P29990); test: Inhibition of Dengue virus serotype 2 NS2B-NS3 protease expressed in Escherichia coli BL21 lambda (DE3) cells using Abz-Nle-Lys-Arg-Arg-Ser-3-(NO2)Tyr as substrate preincubated for 15 mins followed by substrate addition and measured for 15 mins by FRET assay
[8] = biological target: Genome polyprotein (dengue virus type 2) (UniProt P29990); test: Inhibition of Dengue virus serotype 2 NS2B-NS3 protease transfected in human HeLa cells at 12.5 uM measured after 24 hrs by Renilla-luciferase reporter gene assay relative to control; assay type: cell-based
Trypsin [9] = biological target: T1, Trypsin; test: Inhibition of trypsin (unknown origin) using Boc-Val-Pro-Arg-AMC as substrate preincubated for 15 mins followed by substrate addition and measured for 15 mins by fluorimetric assay; assay type: protein assay
dengue virus type 2 [10] = test: Antiviral activity against DENV2 infected in human HuH7 cells assessed as reduction in virus titer at 12.5 uM measured after 48 hrs relative to control; assay type: functional; conditions: Huh-7, 48 h
[11] = Permeability of the compound assessed as drug level in acceptor plate at 200 uM measured after 5 hrs at pH 7.4 by PAMPA; assay type: ADME; conditions: pH 7.4, 5 h
Genome polyprotein [12] = biological target: T3, Genome polyprotein; test: Inhibition of Dengue virus serotype 2 NS2B-NS3 protease transfected in human HeLa cells measured after 24 hrs by Renilla-luciferase reporter gene assay; assay type: cell-based
[13] = Permeability of the compound assessed as drug level in donor plate at 200 uM measured after 5 hrs at pH 7.4 by PAMPA; assay type: ADME; conditions: pH 7.4, 5 h
Huh-7 = test: Cytotoxicity against human HuH7 cells assessed as reduction in cell viability at 12 uM measured after 48 hrs by celltiter-blue assay; assay type: cell-based; conditions: huh-7, 48 h
[14] = Permeability of the compound at 200 uM measured after 5 hrs at pH 7.4 by PAMPA; assay type: ADME; conditions: read-out: permeability
[15] = Permeability of the compound assessed as mass retention at 200 uM measured after 5 hrs at pH 7.4 by PAMPA; assay type: ADME; conditions: pH 7.4, 5 h
dengue virus type 2 [16] = test: Antiviral activity against DENV2 infected in human HuH7 cells assessed as reduction in virus titer measured after 48 hrs; assay type: functional, organism-based; conditions: Huh-7, 48 h
dengue virus type 2 [17] = test: Antiviral activity against DENV2 infected in human HuH7 cells assessed as reduction in virus titer at 10 uM measured after 48 hrs relative to control; assay type: functional; conditions: Huh-7, 48 h
[18] = biological target: Genome polyprotein (West Nile virus) (UniProt P06935); test: Competitive inhibition of West Nile virus NS2B-NS3 protease expressed in Escherichia coli BL21 lambda (DE3) cells using varying levels of Abz-Gly-Leu-Lys-Arg-Gly-Gly-3-(NO2)Tyr as substrate by Cheng-Prusoff plot analysis
[19] = biological target: Genome polyprotein (dengue virus type 2) (UniProt P29990); test: Inhibition of Dengue virus serotype 2 NS2B-NS3 protease expressed in Escherichia coli BL21 lambda (DE3) cells measured after 1 hr by tryptophan fluorescence quenching method
Genome polyprotein [20] = biological target: T3, Genome polyprotein; test: Inhibition of Dengue virus serotype 2 NS2B-NS3 protease expressed in Escherichia coli BL21 lambda (DE3) cells using Abz-Nle-Lys-Arg-Arg-Ser-3-(NO2)Tyr as substrate preincubated for 15 mins followed by substrate addition and measured after 15 mins by HPLC analysis
Genome polyprotein [21] = biological target: T2, Genome polyprotein; test: Inhibition of West Nile virus NS2B-NS3 protease expressed in Escherichia coli BL21 lambda (DE3) cells using Abz-Gly-Leu-Lys-Arg-Gly-Gly-3-(NO2)Tyr as substrate preincubated for 15 mins followed by substrate addition measured after 15 mins by HPLC analysis
[22] = biological target: Genome polyprotein (West Nile virus) (UniProt P06935); test: Inhibition of West Nile virus NS2B-NS3 protease expressed in Escherichia coli BL21 lambda (DE3) cells at 50 uM using Abz-Gly-Leu-Lys-Arg-Gly-Gly-3-(NO2)Tyr as substrate preincubated for 15 mins followed by substrate addition measured after 15 mins by HPLC analysis relative to control
[23] = biological target: Genome polyprotein (dengue virus type 2) (UniProt P29990); test: Inhibition of Dengue virus serotype 2 NS2B-NS3 protease expressed in Escherichia coli BL21 lambda (DE3) cells at 50 uM measured after 1 hr in presence of DENV protease inhibitor aprotinin by tryptophan fluorescence quenching method
[24] = biological target: Genome polyprotein (dengue virus type 2) (UniProt P29990); test: Inhibition of Dengue virus serotype 2 NS2B-NS3 protease expressed in Escherichia coli BL21 lambda (DE3) cells at 50 uM using Abz-Nle-Lys-Arg-Arg-Ser-3-(NO2)Tyr as substrate preincubated for 15 mins followed by substrate addition and measured after 15 mins by HPLC analysis relative to control

T2 sequence (P06935 1371-1501 limits assumed): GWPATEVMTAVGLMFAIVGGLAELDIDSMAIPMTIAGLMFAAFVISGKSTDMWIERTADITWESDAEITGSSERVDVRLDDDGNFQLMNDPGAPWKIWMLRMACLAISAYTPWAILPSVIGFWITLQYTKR
T2 sequence (P06935 1502-2120 limits assumed): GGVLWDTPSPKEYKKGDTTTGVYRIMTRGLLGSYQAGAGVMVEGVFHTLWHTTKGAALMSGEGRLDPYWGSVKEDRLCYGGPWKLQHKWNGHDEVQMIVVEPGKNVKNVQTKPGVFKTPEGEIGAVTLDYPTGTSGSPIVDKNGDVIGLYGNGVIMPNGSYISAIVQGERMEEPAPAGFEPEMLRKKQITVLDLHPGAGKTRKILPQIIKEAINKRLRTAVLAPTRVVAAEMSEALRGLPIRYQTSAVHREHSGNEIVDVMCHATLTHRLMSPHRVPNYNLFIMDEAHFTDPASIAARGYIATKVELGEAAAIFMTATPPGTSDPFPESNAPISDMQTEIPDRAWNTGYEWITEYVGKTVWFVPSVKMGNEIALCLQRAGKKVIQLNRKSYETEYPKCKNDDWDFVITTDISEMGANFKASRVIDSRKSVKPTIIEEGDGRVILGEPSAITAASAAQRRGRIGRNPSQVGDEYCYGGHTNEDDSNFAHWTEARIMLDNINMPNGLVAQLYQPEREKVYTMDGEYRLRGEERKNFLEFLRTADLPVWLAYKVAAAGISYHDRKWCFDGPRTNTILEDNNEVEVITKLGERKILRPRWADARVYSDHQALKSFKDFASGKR
Sequence of Genome polyprotein (West Nile virus) (P06935 whole entry): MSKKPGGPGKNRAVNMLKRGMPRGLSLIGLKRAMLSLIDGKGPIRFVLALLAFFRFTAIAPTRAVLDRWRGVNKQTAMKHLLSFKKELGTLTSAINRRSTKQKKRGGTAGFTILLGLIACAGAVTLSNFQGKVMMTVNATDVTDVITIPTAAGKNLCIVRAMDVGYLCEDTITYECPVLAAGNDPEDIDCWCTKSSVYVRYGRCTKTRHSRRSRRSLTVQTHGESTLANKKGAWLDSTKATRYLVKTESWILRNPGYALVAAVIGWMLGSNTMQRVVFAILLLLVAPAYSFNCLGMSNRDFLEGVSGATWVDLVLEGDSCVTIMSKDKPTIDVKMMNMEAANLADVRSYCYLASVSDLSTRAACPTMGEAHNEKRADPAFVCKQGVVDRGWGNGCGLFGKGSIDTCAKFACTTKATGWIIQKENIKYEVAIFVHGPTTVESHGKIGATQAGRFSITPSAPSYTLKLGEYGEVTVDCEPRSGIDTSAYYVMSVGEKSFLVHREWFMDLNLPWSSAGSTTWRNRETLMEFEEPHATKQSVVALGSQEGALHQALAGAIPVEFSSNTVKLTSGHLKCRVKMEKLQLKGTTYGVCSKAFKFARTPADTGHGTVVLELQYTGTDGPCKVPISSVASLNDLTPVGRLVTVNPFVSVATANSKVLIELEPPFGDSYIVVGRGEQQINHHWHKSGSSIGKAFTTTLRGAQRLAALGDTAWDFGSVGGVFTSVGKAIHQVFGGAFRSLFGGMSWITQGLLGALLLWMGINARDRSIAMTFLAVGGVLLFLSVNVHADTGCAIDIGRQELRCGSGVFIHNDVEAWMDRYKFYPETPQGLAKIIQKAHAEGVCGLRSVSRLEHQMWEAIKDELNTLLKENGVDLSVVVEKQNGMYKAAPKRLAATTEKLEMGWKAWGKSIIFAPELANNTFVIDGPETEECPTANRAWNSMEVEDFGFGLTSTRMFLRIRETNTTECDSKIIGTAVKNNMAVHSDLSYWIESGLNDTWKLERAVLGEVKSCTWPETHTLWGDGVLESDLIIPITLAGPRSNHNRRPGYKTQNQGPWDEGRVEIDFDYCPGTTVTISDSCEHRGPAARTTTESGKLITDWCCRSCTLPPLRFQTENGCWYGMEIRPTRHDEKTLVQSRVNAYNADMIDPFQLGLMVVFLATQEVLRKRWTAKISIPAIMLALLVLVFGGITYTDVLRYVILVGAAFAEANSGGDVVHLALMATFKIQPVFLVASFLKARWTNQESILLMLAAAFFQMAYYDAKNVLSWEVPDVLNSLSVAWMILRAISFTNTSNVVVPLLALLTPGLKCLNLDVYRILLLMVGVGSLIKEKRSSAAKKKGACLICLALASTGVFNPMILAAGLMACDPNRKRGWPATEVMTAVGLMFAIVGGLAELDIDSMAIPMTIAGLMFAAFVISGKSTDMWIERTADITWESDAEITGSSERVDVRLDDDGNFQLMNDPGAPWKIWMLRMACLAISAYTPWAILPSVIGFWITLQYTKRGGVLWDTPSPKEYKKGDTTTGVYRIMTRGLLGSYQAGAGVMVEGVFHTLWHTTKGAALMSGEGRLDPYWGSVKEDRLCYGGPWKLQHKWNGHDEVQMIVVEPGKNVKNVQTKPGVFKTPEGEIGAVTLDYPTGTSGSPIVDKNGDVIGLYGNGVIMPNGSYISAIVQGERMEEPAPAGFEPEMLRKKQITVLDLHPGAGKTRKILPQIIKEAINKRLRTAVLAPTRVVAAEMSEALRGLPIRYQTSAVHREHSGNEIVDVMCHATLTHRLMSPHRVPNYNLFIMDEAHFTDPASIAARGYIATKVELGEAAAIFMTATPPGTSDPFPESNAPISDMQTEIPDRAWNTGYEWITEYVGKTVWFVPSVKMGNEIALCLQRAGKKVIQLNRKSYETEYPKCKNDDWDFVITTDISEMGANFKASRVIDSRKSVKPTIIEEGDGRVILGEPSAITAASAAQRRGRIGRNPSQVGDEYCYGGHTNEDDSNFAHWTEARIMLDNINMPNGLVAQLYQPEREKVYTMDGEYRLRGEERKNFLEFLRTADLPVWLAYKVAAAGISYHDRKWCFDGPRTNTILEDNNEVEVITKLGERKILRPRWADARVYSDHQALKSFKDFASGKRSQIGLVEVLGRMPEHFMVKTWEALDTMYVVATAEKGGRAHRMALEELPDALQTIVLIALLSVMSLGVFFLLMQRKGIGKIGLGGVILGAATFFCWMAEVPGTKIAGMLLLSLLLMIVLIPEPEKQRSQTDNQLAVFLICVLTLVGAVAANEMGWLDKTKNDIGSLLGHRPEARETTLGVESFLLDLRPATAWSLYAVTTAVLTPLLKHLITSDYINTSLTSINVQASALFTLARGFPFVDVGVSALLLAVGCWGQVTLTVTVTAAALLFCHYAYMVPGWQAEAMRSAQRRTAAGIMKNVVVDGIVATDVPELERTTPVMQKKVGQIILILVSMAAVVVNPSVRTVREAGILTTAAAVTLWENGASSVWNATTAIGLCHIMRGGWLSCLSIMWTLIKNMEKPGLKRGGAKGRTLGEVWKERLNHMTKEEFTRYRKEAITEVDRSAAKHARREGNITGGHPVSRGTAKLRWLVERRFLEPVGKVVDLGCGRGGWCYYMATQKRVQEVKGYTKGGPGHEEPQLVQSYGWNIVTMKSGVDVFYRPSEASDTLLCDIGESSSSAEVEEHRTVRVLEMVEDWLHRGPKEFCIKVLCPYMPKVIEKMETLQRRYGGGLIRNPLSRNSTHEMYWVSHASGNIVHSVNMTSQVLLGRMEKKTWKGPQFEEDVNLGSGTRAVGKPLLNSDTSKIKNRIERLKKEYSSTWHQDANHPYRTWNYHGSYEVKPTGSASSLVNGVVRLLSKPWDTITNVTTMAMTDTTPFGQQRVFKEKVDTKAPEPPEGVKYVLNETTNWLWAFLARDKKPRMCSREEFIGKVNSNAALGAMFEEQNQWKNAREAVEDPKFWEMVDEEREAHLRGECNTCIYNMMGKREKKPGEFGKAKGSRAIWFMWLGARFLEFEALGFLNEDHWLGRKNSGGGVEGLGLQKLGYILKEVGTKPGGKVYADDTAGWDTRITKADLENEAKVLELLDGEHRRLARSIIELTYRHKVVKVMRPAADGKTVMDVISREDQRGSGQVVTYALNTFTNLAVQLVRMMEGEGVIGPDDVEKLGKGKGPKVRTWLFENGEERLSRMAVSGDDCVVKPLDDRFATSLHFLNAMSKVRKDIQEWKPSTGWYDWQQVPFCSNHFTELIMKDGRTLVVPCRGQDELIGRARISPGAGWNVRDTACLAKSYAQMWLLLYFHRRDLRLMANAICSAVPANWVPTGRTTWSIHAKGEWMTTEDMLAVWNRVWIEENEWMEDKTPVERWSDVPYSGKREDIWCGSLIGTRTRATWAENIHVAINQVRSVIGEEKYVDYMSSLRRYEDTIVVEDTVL

SMILES | CC50 at 24 h [1] [µM] | inhibition (INH) (Trypsin [2]) | inhibition (INH) (Prothrombin) | inhibition [4] [%] | IC50 (Genome polyprotein [5]) [µM] | inhibition [6] [%] | IC50 (Genome polyprotein [7]) [µM] | inhibition [8] [%] | inhibition at 12.5 µM (dengue virus type 2 [10]) [%] | Drug uptake [11] [µM] | EC50 (Genome polyprotein [12]) [µM] | Drug uptake [13] [µM] | Activity (Huh-7) | Papp at 5 h, 200 µM [14] [×10⁻⁶ cm/s] | R% [15] [%] | also measured
CCCCCC(=O)N[C@H](C(=O)NCc1ccc(CN)cc1)c1ccc(OCc2ccccc2)cc1.O=C(O)C(F)(F)F | 4.8 | Not Active | Not Active | 84.8 | 8.2 | 94.9 | 4.9 | – | – | – | – | – | – | – | – | inhibition [3]: Active; Ki (Genome polyprotein [7]): 3.8 µM
CCCCCC(=O)N[C@H](C(=O)NCc1ccc(C(=N)N)cc1)c1ccc(OCc2ccccc2)cc1.O=C(O)C(F)(F)F | > 50 | – | Not Active | 39.4 | – | 20.6 | – | 49.1 | – | – | – | – | – | – | – | inhibition at 0.25 h, 50 µM (Trypsin [2]): > 50%; IC50 (Trypsin [9]): 45 µM
CCCCCCC(=O)N[C@H](C(=O)NCc1ccc(NC(=N)N)cc1)c1ccc(OCc2ccccc2)cc1.O=C(O)C(F)(F)F | > 50 | Not Active | Not Active | 101 | 17 | 97.2 | 6.8 | 71 | 81 | 1.9 | 0.52 | 167.3 | Non-Toxic | 0.4 | 15.7 | –
N=C(N)Nc1ccc(CNC(=O)[C@@H](NC(=O)c2ccc(-c3ccccc3)cc2)c2ccc(OCc3ccccc3)cc2)cc1.O=C(O)C(F)(F)F | > 50 | – | Not Active | 99.4 | 7.4 | 101 | 1.8 | 67 | – | – | 7.6 | – | – | – | – | inhibition at 0.25 h, 50 µM (Trypsin [2]): > 50%; IC50 (Trypsin [9]): 31 µM
N=C(N)Nc1ccc(CNC(=O)[C@@H](NC(=O)c2ccc(Oc3ccccc3)cc2)c2ccc(OCc3ccccc3)cc2)cc1.O=C(O)C(F)(F)F | > 12.5 | Not Active | Not Active | 101 | 6.2 | 99.5 | 4 | 68.5 | 80.5 | 1.2 | 3 | 154.5 | Non-Toxic | 0.3 | 22.4 | EC50 (dengue virus type 2 [16]): 9.3 µM
CCCCCCCC(=O)N[C@H](C(=O)NCc1ccc(NC(=N)N)cc1)c1ccc(OCc2ccccc2)cc1.O=C(O)C(F)(F)F | > 50 | Not Active | Not Active | 104 | 11 | 100 | 4.8 | 71.4 | – | 1.5 | 0.83 | 164.5 | Non-Toxic | 0.3 | 17.3 | EC50 (dengue virus type 2 [16]): 7.2 µM; inhibition at 10 µM (dengue virus type 2 [17]): 57.7%
N=C(N)Nc1ccc(CNC(=O)[C@@H](NC(=O)c2ccc(OC3CCCCC3)cc2)c2ccc(OCc3ccccc3)cc2)cc1.O=C(O)C(F)(F)F | > 12.5 | Not Active | Not Active | 99.7 | 8.3 | 98.2 | 5.9 | 70.4 | 72.6 | 1.6 | 2.2 | 177.4 | Non-Toxic | 0.3 | 10.8 | –
N=C(N)Nc1ccc(CNC(=O)[C@@H](NC(=O)Cc2ccc(-c3ccccc3)cc2)c2ccc(OCc3c(Cl)cccc3Cl)cc2)cc1.O=C(O)C(F)(F)F | > 50 | Not Active | Not Active | 101 | 1.2 | 101 | 0.54 | 31.7 | – | – | 39 | – | – | – | – | inhibition [18]: Active; inhibition [3]: Active; Drug uptake ([13]; BLD = below limit of detection): Bld; Ki (Genome polyprotein [5]): 1 µM; Ki (Genome polyprotein [7]): 0.46 µM
N=C(N)NCCC[C@H](NC(=O)c1ccccc1)C(=O)N[C@@H](CCCCN)C(=O)N[C@@H](C(N)=O)c1ccc(OCc2ccccc2)cc1 | > 100 | Not Active | Not Active | 86.7 | 3.9 | – | 0.68 | 40.9 | 52.3 | – | 16 | – | Non-Toxic | – | – | EC50 (dengue virus type 2 [16]): 8.6 µM; Drug uptake ([13]; BLD = below limit of detection): Bld
N=C(N)Nc1ccc(CNC(=O)[C@@H](NC(=O)c2ccc(-c3cccs3)s2)c2ccc(OCc3ccccc3)cc2)cc1.O=C(O)C(F)(F)F | > 50 | Not Active | Not Active | – | – | – | – | 52.6 | – | – | 9.3 | – | – | – | – | inhibition [19]: Dose-dependent effect; IC50 (Genome polyprotein [20]): 6.3 µM; IC50 (Genome polyprotein [21]): 6.5 µM; inhibition [22]: 93.6%; inhibition [23]: inactive; inhibition [24]: 99.7%
CCCCCC(=O)N[C@@H](C(=O)NCc1ccc(NC(=N)N)cc1)c1ccc(OCc2ccccc2)cc1.O=C(O)C(F)(F)F | > 50 | – | Not Active | 34.2 | – | 49.9 | – | 54.9 | – | – | 9.9 | – | – | – | – | inhibition at 0.25 h, 50 µM (Trypsin [2]): > 50%; IC50 (Trypsin [9]): 44 µM
